# Measured values as given in EP0306846A2, “Synergistic combination comprising a phosphodiesterase inhibitor and a thromboxane-A2 antagonist, and its use or preparation” (Dr. Karl Thomae GmbH, priority 1987, dated 1989).
# How the values were obtained:
# [1] = in combination with Dipyridamol; J. Clin. Invest. 75, 1591-1599 (1985); cited from earlier work
# [2] = tested on: Plättchenaggregation im Gesamtblut; assay: collagen-induced platelet aggregation in pooled rat whole blood, substances added in vitro; format: cell-based, Ratten; conditions: collagen 7 µg/ml, read-out: % Hemmung
# Procedure: Ratten mit einem durchschnittlichen Körpergewicht von 250 bis 300 g wurden mit 60 mg/kg Pentobarbital narkotisiert. Aus der abdominalen Arterie wurde 4,5 ml Blut entnommen und in 0,5 ml Zitrat (3,8 %) gegeben. Das Blut von 3 Ratten wurde jeweils gepoolt und Proben hiervon, die Lösungsmittel, die Einzelsubstanzen oder die zu untersuchende Kombination enthielten, wurden 10 Minuten lang rotiert. Von diesen Proben wurden jeweils 200 µl in Aggregometer-Küvetten gegeben und 5 Minuten lang bei 37°C gerührt. Anschließend wurden 10 µl Collagenlösung (Endkonzentration: 7 µg/ml) zugegeben und zu verschiedenen Zeiten jeweils 10 µl Blut entnommen, welches anschließend mit Formaldehyd fixiert wurde. In diesen Proben wurden die nicht aggregierten Plättchen mit einem Ultra-Flo 100 (Becton-Dickinson) bestimmt. Die nachfolgende Tabelle enthält die gefundenen Werte: […]
# [3] = tested on: Plättchenaggregation im Gesamtblut; assay: collagen-induced platelet aggregation in whole blood of rats after administration of the substances (ex vivo); parameters: species or system Ratten; conditions: rat, versus vehicle controls
# Procedure: Ratten mit einem durchschnittlichen Körpergewicht von 250 bis 300 g wurden mit 60 mg/kg Pentobarbital narkotisiert. Aus der abdominalen Arterie wurde 4,5 ml Blut entnommen und in 0,5 ml Zitrat (3,8 %) gegeben. Das Blut von 3 Ratten wurde jeweils gepoolt und Proben hiervon, die Lösungsmittel, die Einzelsubstanzen oder die zu untersuchende Kombination enthielten, wurden 10 Minuten lang rotiert. Von diesen Proben wurden jeweils 200 µl in Aggregometer-Küvetten gegeben und 5 Minuten lang bei 37°C gerührt. Anschließend wurden 10 µl Collagenlösung (Endkonzentration: 7 µg/ml) zugegeben und zu verschiedenen Zeiten jeweils 10 µl Blut entnommen, welches anschließend mit Formaldehyd fixiert wurde. In diesen Proben wurden die nicht aggregierten Plättchen mit einem Ultra-Flo 100 (Becton-Dickinson) bestimmt. Die nachfolgende Tabelle enthält die gefundenen Werte:
# Desweiteren wurde die synergistische Wirkung auf die Plättchenaggregation im Gesamtblut für die Kombination, bestehen aus Pimobendan (Substanz C) und Substanz B in Vergleich zu den Einzelverbindungen wie folgt untersucht: Ratten mit einem durchschnittlichen Körpergewicht von 250 bis 300 g Körpergewicht wurden 5 mg/kg Substanz C und 0,5 mg/kg Substanz B oder die Kombination im Vergleich zu Kontrollen, welche nur das Vehikel appliziert bekamen, gegeben. […]
smiles,measurement,setting,value
"O=C(O)c1ccc(OCCn2ccnc2)cc1 [Dazoxiben, 4-[2-(1H-Imidazol-1-yl)-ethoxy]benzoesäure]",Einfluß auf die antithrombotische Wirkung des PDE-Hemmers,[1],keinen verbessernden Einfluß
"CCOc1nc(N2CCNCC2)nc(N2CC[S+]([O-])CC2)c1[N+](=O)[O-] [Substanz A, 6-Äthoxy-5-nitro-4-(1-oxidothiomorpholino)-2-piperazino-pyrimidin]",inhibition at 0.03 µM,"[2]; 0,03 µMol/l",4%
"O=C(O)CCCc1ccc2c(c1)CC(NS(=O)(=O)c1ccc(Cl)cc1)C2 (stereo not drawn) [Substanz B, 4-[2-p-Chlorbenzolsulfonamido-indan-5-yl]-buttersäure]",inhibition at 0.1 µM,"[2]; 0,10 µMol/l",3%
same,inhibition at 0.3 µM,"[2]; 0,30 µMol/l",19%
same,% Hemmung,"[3]; dose 0,5 mg/kg",59%
"COc1ccc(-c2nc3ccc(C4=NNC(=O)CC4C)cc3[nH]2)cc1 (stereo not drawn) [Substanz C, 2-(4-Methoxy-phenyl)-5(6)-(5-methyl-3-oxo-4,5-dihydro-2H-6-pyridazinyl)-benzimidazol, reference compound]",% Hemmung,"[3]; dose 5,0 mg/kg",-1%
